From PMC11288027, “Exploring novel microbial metabolites and drugs for inhibiting Clostridioides difficile” (mSphere, 2024)
In brackets after ≈: the same amount, converted by molar mass. Several values for one entry are separate records, joined by “and”; a condition that tells them apart may be missing. Equal values may be shown once. Read-outs that look alike come from different tables or passages of the source.

What was measured:
Bif. longum = assay: MIC against human gut microbiota; format: cell-based, Bifidobacterium longum; conditions: Bifidobacterium longum, anaerobic, read-out: minimum inhibitory concentration (MIC)
B. fragilis = assay: MIC against human gut microbiota; format: cell-based, Bacteroides fragilis; conditions: Bacteroides fragilis, anaerobic, read-out: minimum inhibitory concentration (MIC)
[1] = test system: C. difficile clinical isolates; assay: MIC against a panel of 20 C. difficile clinical isolates (broth microdilution); format: cell-based, Clostridioides difficile; conditions: Clostridioides difficile; for MIC50: concentration that inhibited 50% of the 20 C. difficile clinical isolates, read-out: MIC50; for MIC: read-out: minimum inhibitory concentration (MIC); for MIC90: concentration that inhibited 90% of the 20 C. difficile clinical isolates, read-out: MIC90
Bif. angulatum = assay: MIC against human gut microbiota; format: cell-based, Bifidobacterium angulatum; conditions: Bifidobacterium angulatum; Bif. angulatum HM- 1189, BHIS broth, anaerobic; read-out: minimum inhibitory concentration (MIC)
[2] = test system: C. difficile ATCC BAA-1870; assay: MIC of active hits by broth microdilution; conditions: C. difficile ATCC BAA-1870, 48 h anaerobic; for MIC: Clostridioides difficile, ATCCBAA1870, 48 h
Bif. breve = assay: MIC against human gut microbiota; format: cell-based, Bifidobacterium breve; conditions: Bifidobacterium breve, ATCC15700; Bif. breve ATCC 15700, BHIS broth, anaerobic; read-out: minimum inhibitory concentration (MIC)
B. dorei = assay: MIC against human gut microbiota; format: cell-based, Bacteroides dorei; conditions: Phocaeicola dorei; B. dorei HM- 719, BHIS broth, anaerobic; read-out: minimum inhibitory concentration (MIC)
E. fecalis = assay: MIC against human gut microbiota; format: cell-based, Enterococcus faecalis; conditions: Enterococcus faecalis; E. fecalis HM-970, TSB, aerobic; read-out: minimum inhibitory concentration (MIC)
L. brevis = assay: MIC against human gut microbiota; format: cell-based, Lactobacillus brevis; conditions: Levilactobacillus brevis, ATCC14864; L. brevis ATCC-14864, MRS broth, 5% CO2; read-out: minimum inhibitory concentration (MIC)
[3] = Cytotoxicity assessment against Vero cells (MTS); conditions: monkey, Vero cells (monkey kidney epithelial cells)
[4] = test system: monkey kidney epithelial (Vero) cells; assay: Cytotoxicity assessment against Vero cells (MTS); conditions: Vero IC50 relative to MIC90 of C. difficile panel
L. casei = assay: MIC against human gut microbiota; format: cell-based; conditions: Lacticaseibacillus casei, ATCC334; L. casei ATCC 334, MRS broth, 5% CO2; read-out: minimum inhibitory concentration (MIC)
E. faecium = assay: MIC against human gut microbiota; format: cell-based, Enterococcus faecium; conditions: Enterococcus faecium; E. faecium HM-202, TSB, aerobic; read-out: minimum inhibitory concentration (MIC)
L. rhamanosus = assay: MIC against human gut microbiota; format: cell-based, Lactobacillus rhamnoosus; conditions: Lactobacillus, ATCC53103; L. rhamanosus ATCC-53103, MRS broth, 5% CO2; read-out: minimum inhibitory concentration (MIC)
Bif. adolescentis = assay: MIC against human gut microbiota; format: cell-based, Bifidobacterium adolescentis; conditions: Bifidobacterium adolescentis; Bif. adolescentis HM- 633, BHIS broth, anaerobic; read-out: minimum inhibitory concentration (MIC)
[5] = test system: Staphylococcus epidermidis; design: method as in PMID 26414088; conditions: cited from earlier work
S. aureus = test system: S. aureus; design: method as in PMID 26414088; conditions: cited from earlier work
Acinetobacter baumannii = test system: Acinetobacter baumannii; design: method as in PMID 26414088; conditions: cited from earlier work
mice = conditions: administered orally; cited from earlier work
[6] = test system: C. difficile ATCC BAA-1870; assay: Time-kill assay at 5 × MIC; conditions: C. difficile ATCC BAA-1870, ~10^6 CFU/mL, up to 24 h
[7] = Bif. longum HM- 845, BHIS broth
[8] = Bif. longum HM- 846, BHIS broth
[9] = Bif. longum HM- 847, BHIS broth
[10] = Bif. longum HM- 848, BHIS broth
[11] = B. fragilis HM- 709, BHIS broth
[12] = B. fragilis HM- 718, BHIS broth
[13] = ATCC43255, C. difficile ATCC 43255
[14] = ATCCBAA1870, C. difficile ATCC BAA-1870 (Ribotype-027), purchased compounds, panel test
[15] = C. difficile CD-1 (Ribotype-027)
[16] = C. difficile CD-6 (Ribotype-027)
[17] = C. difficile CD-10(Ribotype-027)
[18] = C. difficile CD-26 (Ribotype-027)
[19] = C. difficile CD-29 (Ribotype-027)

COC(=O)N/N=C/c1c[n+]([O-])c2ccccc2[n+]1[O-] [Carbadox] gave an MIC (Bif. longum; [7]) of 4 µg/mL (≈ 15.3 µM), an MIC (Bif. longum; [8]) of 8 µg/mL (≈ 30.5 µM) and an MIC (Bif. longum; [9]) of 16 µg/mL (≈ 61 µM). The MIC (Bif. longum; [10]) was 4 µg/mL (≈ 15.3 µM), the MIC (B. fragilis; [11]) was 2 µg/mL (≈ 7.63 µM) and the MIC (B. fragilis; [12]) was 2 µg/mL (≈ 7.63 µM). For the same compound, the MIC50 ([1]; 48 h) was 1 µg/mL (≈ 3.81 µM), the MIC ([1]; ATCC630, C. difficile ATCC 630) was 1 µg/mL (≈ 3.81 µM) and the MIC [1, 13] was 1 µg/mL (≈ 3.81 µM). For the same compound, the MIC [1, 14] was 2 µg/mL (≈ 7.63 µM), the MIC [1, 15] was 2 µg/mL (≈ 7.63 µM) and the MIC [1, 16] was 0.5 µg/mL (≈ 1.91 µM). It also gave an MIC [1, 17] of 2 µg/mL (≈ 7.63 µM), an MIC ([1]; C. difficile CD-12) of 2 µg/mL (≈ 7.63 µM) and an MIC ([1]; C. difficile CD-13) of 1 µg/mL (≈ 3.81 µM). For the same compound, the MIC ([1]; C. difficile CD-15) was 1 µg/mL (≈ 3.81 µM), the MIC ([1]; C. difficile CD-22) was 2 µg/mL (≈ 7.63 µM) and the MIC ([1]; C. difficile CD-23) was 2 µg/mL (≈ 7.63 µM). For the same compound, the MIC ([1]; C. difficile CD-24) was 1 µg/mL (≈ 3.81 µM), the MIC [1, 18] was 2 µg/mL (≈ 7.63 µM) and the MIC ([1]; C. difficile CD-28) was 2 µg/mL (≈ 7.63 µM). It also gave an MIC [1, 19] of 0.5 µg/mL (≈ 1.91 µM), an MIC ([1]; C. difficile CD-30) of 2 µg/mL (≈ 7.63 µM) and an MIC ([1]; C. difficile NR-49302) of 2 µg/mL (≈ 7.63 µM). It also gave an MIC ([1]; C. difficile NR-49304) of 1 µg/mL (≈ 3.81 µM), an MIC ([1]; C. difficile NR-49308) of 1 µg/mL (≈ 3.81 µM) and an MIC ([1]; C. difficile NR-49319) of 0.5 µg/mL (≈ 1.91 µM). The MIC50 [1] was 1 µg/mL (≈ 3.81 µM), the MIC90 [1] was 2 µg/mL (≈ 7.63 µM) and the MIC (Bif. angulatum) was 4 µg/mL (≈ 15.3 µM). The “MIC (μM)” value [2] was 4 µM, the MIC [2] was 1.05 µg/mL and the MIC (Bif. breve) was 16 µg/mL (≈ 61 µM). It also gave an MIC (B. dorei) of 2 µg/mL (≈ 7.63 µM), an MIC (E. fecalis) of 128 µg/mL (≈ 488 µM) and an MIC (L. brevis) of 32 µg/mL (≈ 122 µM). The IC50 at 24 h [3] was > 128 µg/mL, the “safety index: Vero IC50 as times the MIC90 against strains of C. difficile” value [4] was > 64 times and the MIC (L. casei) was 128 µg/mL (≈ 488 µM). For the same compound, the MIC (E. faecium) was 128 µg/mL (≈ 488 µM), the MIC (L. rhamanosus) was > 256 µg/mL and the MIC (Bif. adolescentis) was 4 µg/mL (≈ 15.3 µM).
For Oc1c(Br)cc(Br)c2cccnc12 [Broxyquinoline], the MIC [5] is listed as 12.5 µM and 4 µg/mL, the MIC (Bif. longum; [7]) is listed as > 256 µg/mL and the MIC (Bif. longum; [8]) is listed as 128 µg/mL (≈ 423 µM). For the same compound, the MIC (Bif. longum; [9]) was 32 µg/mL (≈ 106 µM), the MIC (Bif. longum; [10]) was 64 µg/mL (≈ 211 µM) and the MIC (B. fragilis; [11]) was 8 µg/mL (≈ 26.4 µM). It also gave an MIC (B. fragilis; [12]) of 16 µg/mL (≈ 52.8 µM), an MIC50 ([1]; 48 h) of 0.125 µg/mL (≈ 0.413 µM) and an MIC ([1]; ATCC630, C. difficile ATCC 630) of 1 µg/mL (≈ 3.3 µM). For the same compound, the MIC [1, 13] was 0.25 µg/mL (≈ 0.825 µM), the MIC [1, 14] was 0.125 µg/mL (≈ 0.413 µM) and the MIC [1, 15] was 0.25 µg/mL (≈ 0.825 µM). The MIC [1, 16] was 0.25 µg/mL (≈ 0.825 µM), the MIC [1, 17] was 0.125 µg/mL (≈ 0.413 µM) and the MIC ([1]; C. difficile CD-12) was 0.125 µg/mL (≈ 0.413 µM). For the same compound, the MIC ([1]; C. difficile CD-13) was 0.03 µg/mL (≈ 0.099 µM), the MIC ([1]; C. difficile CD-15) was 0.25 µg/mL (≈ 0.825 µM) and the MIC ([1]; C. difficile CD-22) was 0.125 µg/mL (≈ 0.413 µM). For the same compound, the MIC ([1]; C. difficile CD-23) was 0.125 µg/mL (≈ 0.413 µM), the MIC ([1]; C. difficile CD-24) was 0.015 µg/mL (≈ 0.0495 µM) and the MIC [1, 18] was 0.125 µg/mL (≈ 0.413 µM). The MIC ([1]; C. difficile CD-28) was 0.06 µg/mL (≈ 0.198 µM), the MIC [1, 19] was 0.06 µg/mL (≈ 0.198 µM) and the MIC ([1]; C. difficile CD-30) was 0.25 µg/mL (≈ 0.825 µM). For the same compound, the MIC ([1]; C. difficile NR-49302) was 0.06 µg/mL (≈ 0.198 µM), the MIC ([1]; C. difficile NR-49304) was 0.03 µg/mL (≈ 0.099 µM) and the MIC ([1]; C. difficile NR-49308) was 0.06 µg/mL (≈ 0.198 µM). For the same compound, the MIC ([1]; C. difficile NR-49319) was 0.25 µg/mL (≈ 0.825 µM), the MIC50 [1] was 0.125 µg/mL (≈ 0.413 µM) and the MIC90 [1] was 0.25 µg/mL (≈ 0.825 µM). The MIC (Bif. angulatum) was 8 µg/mL (≈ 26.4 µM), the MIC (S. aureus) was 4 µg/mL (≈ 13.2 µM) and the “MIC (μM)” value [2] was 4 µM. For the same compound, the MIC [2] was 1.21 µg/mL, the MIC (Bif. breve) was > 256 µg/mL and the MIC (Acinetobacter baumannii) was 12.5 µM and 4 µg/mL. The MIC (B. dorei) was 8 µg/mL (≈ 26.4 µM), the MIC (E. fecalis) was 16 µg/mL (≈ 52.8 µM) and the MIC (L. brevis) was 64 µg/mL (≈ 211 µM). The MIC (L. casei) was 32 µg/mL (≈ 106 µM), the MIC (E. faecium) was 32 µg/mL (≈ 106 µM) and the MIC (L. rhamanosus) was > 256 µg/mL. For the same compound, the LD50 (mice) was 7400 mg/kg, the “time to eliminate / clear C. difficile” value [6] was 6 h and the MIC (Bif. adolescentis) was 64 µg/mL (≈ 211 µM).
